Source: patent US20110166195A1, “METHOD FOR THE FORMATION OF MEGAMITOCHONDRIA” (priority 2008, published 2011)
“Also recorded” adds a separate entry of the source. Counter-ions that a name gives are not always drawn.

Columns and labels:
143B.TK−K7 cells = assay: Mitochondrial membrane potential by JC-1 staining (confocal microscopy); assay type: cell-based, Human; conditions: 10 μM CCCP for 30 minutes before JC-1; 24 and 62 hours cultivation time
Method: Documentation at 24 hours (A1-A3, B1-B3) and 62 hours (C1-C3, D1-D3) cultivation time by JC-1-staining. The red fluorescence of J-aggregates (A1, B1, C1, D1) as well as the green monomer form (A2, B2, C2, D2) were analysed simultaneously by excitation wavelength of 488 nm. Images A3, B3, C3, D3 show overlays. Calibration bars correspond to 10 μm.
To measure differences in mitochondrial membrane potential between the various stages of megamitochondria formation and control cells the dual emission of the potentiometric dye JC-1 was observed. The cells either were incubated directly with 3 μM JC-1 diluted in the standard culture medium and filtered once with 0.2 μm syringe filter for 30 min at 37° C. or first treated with CCCP (final concentration 10 μM) for 30 min for the comparison of cells without membrane potential. The cells were viewed in vivo with the inverse confocal laser scanning microscope (simultaneous excitation of red and green fluorescence by 488 nm wavelength) to observe local differences in the mitochondrial membrane potential.
To determine the mitochondrial membrane potential during the formation of megamitochondria 143B.TK^−K7 cells were either directly stained with JC-1 […] or incubated with […] CCCP for 30 minutes before. […]

143B.TK−K7gm cells [1] = assay: Formation of megamitochondria in drug-treated cells (fluorescence/confocal microscopy of EGFP-Mito); assay type: cell-based, Human
Method: (A) 24 h after seeding 143B.TK^−K7gm cells were incubated with 10 μM CCCP (A A1), 10 μM valinomycin (A A2, B) or 1 μM nigericin (A A3) for 18 h.
(§1) (A) 143B.TK^−K7gm cells stained with EGFP-Mito were treated with 4 μM cytochalasin B (A1, A2, B1, B2) at different cultivation times for 9-15 hours or an equivalent amount of solvent as control (A3, A4, B3, B4). Staining of actin cytoskeleton was achieved by Alexa Fluor […] phalloidin in fixed cells (A2, B2, A4, B4). Arrow heads indicate round areas in the cytoplasm observable by actin staining after 62 hours cultivation time.
143B.TK^−K7gm cells were treated with 10 μM nocodazol at different cultivation times for 9-15 hours (A1, A2, B1, B2) or as control with an equivalent amount solvent (A3, A4, B3, B4). The morphology of mitochondria is shown by in vivo EGFP-Mito-staining in the images A1, B1, C1, A3, B3, C3. The staining of tubulin cytoskeleton was performed by an antibody against alpha-tubulin and a Cy3-coupled secondary antibody in fixed cells (A2, B2, A4, B4). Calibration bars correspond to 10 μm.
(§2) Drugs (final concentrations 6-10 μM nocodazol, 2.4-4 μM cytochalasin B, 10 μM CCCP, 10 μM valinomycin and 1 μM nigericin) were added to standard culture medium at different stages of megamitochondria development.
(§3) To avoid a cross talk in excitation of multiple stained compounds always a sequential scanning mode was used in confocal microscopy.
To investigate the influence of the mitochondrial membrane potential on the formation and back formation of the megamitochondria 143B.TK^−K7gm cells were incubated with 10 μM CCCP (H^+ ionophore), 10 μM valinomycin (K^+ selective ionophore) and 1 μM nigericin (selective electron neutral K^+/H^+ exchange) (FIG. 4).
(§4) To observe the influence of the tubulin or actin cytoskeleton, respectively, on the formation of megamitochondria 143B.TK^−K7 gm cells were incubated with 10 μM nocodazol or […] cytochalasin B for 9-15 hours.

[2] = system: 143B.TK−K7gm cells with megamitochondria; assay: Back-formation of megamitochondria after exchange of acidic medium in drug-treated cells; assay type: cell-based, Human; conditions: fresh medium also with drug; for back-formation of megamitochondria (mitochondrial morphology after medium exchange): 10 μM CCCP, 10 μM valinomycin or 1 μM nigericin for 30 minutes, analysed 60 minutes after medium exchange; for back-formation of megamitochondria: 6 μM nocodazol or 2.4 mM cytochalasin B for 3 hours, observed one and three hours after medium exchange
Method: (C) 143B.TK^−K7gm cells with megamitochondria were incubated with 10 μM CCCP (C A1, B1), 10 μM valinomycin (C A2, B2) or 1 μM nigericin (C A3, B3) for 30 minutes. 60 Minutes after medium exchange (ME) the mitochondrial morphology was analysed. Untreated controls are shown in A A4 and C A4, B4. Calibration marks correspond to 10 μm.
(B) The influence of the actin cytoskeleton on the back-formation of megamitochondria in 143B.TK^−K7gm cells was tested by treatment with 2.4 μM cytochalasin B (A1, A2, C1, D1) or an an equivalent amount of solvent as control (B1, B2, C2, D2) for 3 hours. Mitochondrial morphology was analyzed one (C1, C2) or three hours (D1, D2) after medium exchange. Staining of action cytoskeleton was carried out by Alexa Fluor […] phalloidin in fixed cells (A2, B2).
143B.TK^−K7gm cells with megamitochondria were incubated for 3 hours with 6 μM nocodazol (A1, A2, C1, D1) or as control with an equivalent amount solvent (B1, B2, C2, D2). The analysis of mitochondrial changes in structure were carried out 1 hour (C1, C2) or 3 hours (D1, D2) after the exchange of acidic medium. Arrow heads indicate abnormal ring shaped mitochondrial structures persisting for at least 3 hours. Calibration bars correspond to 10 μm.
as §2, §3
To investigate the influence of the different chemicals on the back-formation of megamitochondria the cells were incubated with indicated concentrations of CCCP, valinomycin and nigericin for 30 minutes (FIG. 4C).
The influence of tubulin and actin cytoskeleton inhibition on back-formation of megamitochondria was performed with 143B.TK^− K7 gm cells with megamitochondria 3 hours after incubating the cells with 6 μM nocodazol or […] cytochalasin B. After changing the used acidic medium and its replacement by fresh medium also completed by the drugs structural changes of mitochondria were observed one hour and three hours later.

143B.TK−gm cells = assay: Induction of megamitochondria by changes of culture medium; assay type: cell-based, Human; conditions: medium with HCl or lactic acid (pH 6.7-5.3) or 30-180 mM sodium lactate (pH 7.4 maintained); one hour
Method: (§5) The induction of megamitochondria formation was done by the transfer of acidic medium from 143B.TK^− K7 ρ^0 cells and by an artificial acidification of fresh medium with lactic acid, pH 6.0-6.3. Additional changes of culture medium were performed by an acidification of the medium with HCl, addition of 30-180 mM sodium lactate and 1.3-2.0 mM NaOH.
(§6) To test whether megamitochondria can be induced by extrinsic changes of pH value or lactic acid concentration in the culture medium 143B.TK^−K7gm, 143B.TK^−gm and HeLa were incubated with medium complemented with HCl and lactic acid, respectively (pH 6.7-5.3). Additionally, the influence of high concentrations of sodium lactate (30-180 mM) on the megamitochondria formation was determined without changing the pH. A pH value of 6.7-6.8 and a lactate concentration of 30 mM corresponds to the measured values in the analysed cultivation medium of 143B.TK^−K7 cells. Incubation of cells was carried out for one hour with subsequent analyses of mitochondrial morphology in vivo.

HeLa cells = assay: as above; assay type: cell-based; conditions: medium with HCl or lactic acid (pH 6.7-5.3) or 30-180 mM sodium lactate (pH 7.4 maintained); one hour
Method: as §5, §6

[3] = system: 143B.TK−K7gm cells with megamitochondria; assay: Back-formation of megamitochondria by changes of culture medium; assay type: cell-based, Human; conditions: one hour
Method: Similar experiments were carried out to investigate the back-formation of megamitochondria (FIG. 9). To this end, 143B.TK^−K7 gm cells with megamitochondria were incubated in medium complemented with different additions. Changes of pH value were reached by the addition of 0.04-0.2 mM NaOH into the used culture medium as well as by the addition of HCl and lactic acid, respectively, of values 7.0-5.6 in fresh culture medium. Moreover, the influence of high concentrations of sodium lactate on the back-formation of megamitochondria was analysed by adding 20-210 mM sodium lactate, pH 7.4 into fresh medium without changing the pH value. Treatment of cells with different media was performed for one hour, thereafter the mitochondrial morphology was analysed by fluorescence microscopy.

143B.TK−K7gm cells [4] = assay: Induction of megamitochondria by changes of culture medium; assay type: cell-based, Human; conditions: medium with HCl or lactic acid (pH 6.7-5.3) or 30-180 mM sodium lactate (pH 7.4 maintained); one hour
Method: as §5, §6

actin cytoskeleton = assay: Staining of actin cytoskeleton by phalloidin in fixed cells; assay type: cell-based, Human; conditions: 4 mM cytochalasin B for 9-15 hours, 143B.TK−K7gm cells
Method: as §1
For detection of the actin cytoskeleton cells on cover slips treated as indicated were fixed with 3.7% formaldehyde in PBS for 10 min at room temperature and after three washes in PBS for 5 min permeabilized with 0.1% Triton X-100 in PBS for 5 min. After additional washing steps with PBS (5 min) cells were blocked with 1% BSA in PBS for 30 min at room temperature and incubated with 1 unit (5 μl) Alexa Fluor 546 Phalloidin in 1% BSA in PBS for 20 min at room temperature. After washing the cells three times with PBS for 7 min, the cover slips were mounted with Mowiol and analysed with the confocal microscope.
as §4

tubulin polymerisation = assay: Immunocytochemical staining of tubulin cytoskeleton with antibody against alpha-tubulin; assay type: cell-based, Human; conditions: 10 μM nocodazol for 9-15 hours, 143B.TK−K7gm cells
Method: 143B.TK^−K7gm cells were treated with 10 μM nocodazol at different cultivation times for 9-15 hours (A1, A2, B1, B2) or as control with an equivalent amount solvent (A3, A4, B3, B4). […] The staining of tubulin cytoskeleton was performed by an antibody against alpha-tubulin and a Cy3-coupled secondary antibody in fixed cells (A2, B2, A4, B4).
Cells grown on cover slips were treated as indicated, fixed with methanol (−20° C.) for 5 min and permeabilized with 0.2% Triton X-100 in PBS for 5 min at room temperature. After washing three times with PBS (5 min), the blocking reaction was performed with 100 mM glycine in PBS for 10 min following 3% BSA in PBS for 30 min at room temperature.
Subsequently cover slips were incubated with mouse anti-alpha tubulin polyclonal primary antibody diluted 1:50 in 1% BSA in PBS at 4° C. over night. After washing the cells three times with PBS (5 min), the cover slips were incubated with Cy3-conjugated goat secondary antibody in 10% goat serum in PBS for 1 h at room temperature. The cells were washed three times with PBS (7 min) prior to mounting in Mowiol and analysed by fluorescence microscopy.

[5] = 10 μM CCCP, 10 μM valinomycin or 1 μM nigericin for 18 h, 24 h after seeding
[6] = 10 μM nocodazol or 4 mM cytochalasin B for 9-15 hours

| SMILES | formation of megamitochondria (143B.TK−K7gm cells [1]; [5]) | back-formation of megamitochondria (mitochondrial morphology after medium exchange) [2] | induction of megamitochondria (143B.TK−gm cells) | induction of megamitochondria (HeLa cells) | induction of megamitochondria (143B.TK−K7gm cells [4]) | also measured |
| --- | --- | --- | --- | --- | --- | --- |
| N#CC(C#N)=NNc1cccc(Cl)c1 [CCCP] | inhibited | comparable to the control cells | – | – | – | mitochondrial membrane potential (JC-1 red/green fluorescence) (143B.TK−K7 cells): the red fluorescence was clearly less distinct |
| Cl [HCl] | – | – | not possible | not possible | not possible | back-formation of megamitochondria ([3]; fresh medium acidified with HCl, pH 6.0): did not change their form; back-formation of megamitochondria ([3]; fresh medium acidified with HCl, pH 7.0): formed back to a tubular network |
| [Na+].[OH-] [NaOH] | – | – | – | – | – | back-formation of megamitochondria ([3]; 1.3 mM NaOH added into the acidic medium): did not lead to the back-formation of megamitochondria; also recorded: did not lead to the back formation of megamitochondria; back-formation of megamitochondria ([3]; 2.0 mM NaOH added into the acidic medium): resulted in a change in mitochondrial morphology from spherical forms to tubules and network-like structures; also recorded: sufficient to induce the back-formation of megamitochondria |
| C=C1[C@@H](C)[C@H]2[C@H](Cc3ccccc3)NC(=O)[C@]23OC(=O)/C=C/[C@H](O)CCC[C@@H](C)C/C=C/[C@H]3[C@@H]1O [cytochalasin B] | – | – | – | – | – | formation of megamitochondria (143B.TK−K7gm cells [1]; [6]): prevented formation of megamitochondria; back-formation of megamitochondria [2]: severe influence on megamitochondria back-formation; effectiveness of drug treatment on actin cytoskeleton (phalloidin staining) (actin cytoskeleton): confirming the effectiveness of drug treatment |
| CC(O)C(=O)O (centres unmarked) [lactic acid] | – | – | led to the formation of megamitochondria | led to the formation of megamitochondria | led to the formation of megamitochondria | back-formation of megamitochondria ([3]; fresh medium acidulated with lactic acid, pH 6.8): the spherical mitochondria changed to a tubular network; back-formation of megamitochondria ([3]; fresh medium acidulated with lactic acid, pH 7.0): resulted in the back-formation of megamitochondria |
| CO[C@@H]1C[C@@H](C[C@H]2CC[C@H](C)[C@H]([C@@H](C)C(=O)O)O2)O[C@]2(O[C@](C)([C@H]3CC[C@@](C)([C@@H]4O[C@@H]([C@H]5O[C@@](O)(CO)[C@H](C)C[C@@H]5C)C[C@@H]4C)O3)C[C@H]2C)[C@@H]1C [nigericin] | inhibited | comparable to the control cells | – | – | – | – |
| COC(=O)Nc1nc2ccc(C(=O)c3cccs3)cc2[nH]1 [nocodazol] | – | – | – | – | – | formation of megamitochondria (143B.TK−K7gm cells [1]; [6]): no influence of the tubulin cytoskeleton on the formation of megamitochondria; back-formation of megamitochondria [2]: only minor influence on back-formation of megamitochondria; inhibition of tubulin polymerisation (alpha-tubulin staining) (tubulin polymerisation): Complete inhibition of tubulin polymerisation |
| CC(O)C(=O)[O-].[Na+] (centres unmarked) [sodium lactate] | – | – | not possible | not possible | not possible | back-formation of megamitochondria ([3]; fresh medium with 20-210 mM sodium lactate, pH 7.4): led to the back-formation of megamitochondria in all used concentrations |
| CC(C)[C@@H]1NC(=O)[C@H](C)OC(=O)[C@@H](C(C)C)NC(=O)[C@@H](C(C)C)OC(=O)[C@H](C(C)C)NC(=O)[C@H](C)OC(=O)[C@@H](C(C)C)NC(=O)[C@@H](C(C)C)OC(=O)[C@H](C(C)C)NC(=O)[C@H](C)OC(=O)[C@@H](C(C)C)NC(=O)[C@@H](C(C)C)OC1=O [valinomycin] | led to the formation of megamitochondria with diameters exceeding the control cells | inhibited the back-formation of megamitochondria | – | – | – | – |
